Measurements reported in article PMC10150354, “Linearization of the Brevicidine and Laterocidine Lipopeptides Yields Analogues That Retain Full Antibacterial Activity” (Journal of Medicinal Chemistry, 2023).
≈ marks a conversion by molar mass, not a printed value. Where a SMILES comes first, the peptide text is derived from it. [ ]: non-standard residue; d: D form. The star is where a group is joined. Octanoyl(7-Me) = CC(C)CCCCCC(=O)*; dOrn = NCCC[C@@H](N)C(=O)O; Orn = NCCC[C@H](N)C(=O)O

Assays:
E. coli (MCR-1) = assay type: cell-based, Escherichia coli; details: microbroth dilution per CLSI, MHB, 18 h at 37 °C, visual inspection, three technical replicates, E. coli 25922 carrying mcr-1
Method: (§1) Linear laterocidine (LL-OH, 4) and linear brevicidine (LB-OH, 5) were first synthesized by Fmoc SPPS, starting from 2-chlorotrityl (2-CT) chloride resin. The antibacterial activity of these peptides was then compared to brevicidine (1) and laterocidine (2) using minimum inhibitory concentration (MIC)/microbroth dilution assays (Table 1). The MICs of all peptides were determined against a panel of Gram-negative and Gram-positive ESKAPE pathogens. Additionally, a strain of E. coli carrying the mcr-1 gene was included in the panel. The mcr-1 gene is a transferrable plasmid that confers resistance against colistin, a last-resort antibiotic for Gram-negative infections, by reducing the overall negative charge of lipopolysaccharide (LPS) through modification of lipid A with phosphoethanolamine. The propensity for cationic antibiotics to bind to the cell membrane is therefore reduced. This gene has been observed in more than 27 bacterial species over six continents.[26] The spread of the mcr-1 gene could render colistin ineffectual; therefore, novel antibacterials are urgently required to overcome this form of resistance.
(§2) All minimum inhibitory concentrations (MICs) were determined according to Clinical and Laboratory Standards Institute (CLSI) guidelines. Blood agar plates were inoculated with glycerol stocks of E. coli ATCC 25922, K. pneumoniae ATCC 13883, A. baumannii ATCC 17961, P. aeruginosa PAO1, and S. aureus USA300. The inoculated agar plates were then incubated for 16 h at 37 °C. Individually grown colonies were subsequently used to inoculate 5 mL aliquots of TSB that were then incubated at 37 °C with shaking at 220 rpm. E. coli 25922 MCR-1 glycerol stock was used to inoculate 5 mL of TSB supplemented with kanamycin that was then incubated for 16 h at 37 °C with shaking at 220 rpm. The next day the culture was diluted 100-fold in TSB supplemented with kanamycin and incubated at 37 °C with shaking at 220 rpm. In parallel, the lipopeptide antibiotics DMSO stocks to be assessed were serially diluted with MHB in polypropylene 96-well plates (50 μL in each well). Colistin sulfate stocks were dissolved in water before being diluted with MHB. Aliquots of the inoculated TSB were incubated until an OD600 of around 0.5 was reached. The bacterial suspensions were then diluted with MHB (2 × 10^5 CFU/mL) and added to the microplates containing the test compounds (50 μL to each well). The well plates were sealed with an adhesive membrane and after 18 h of incubation at 37 °C with shaking at 600 rpm, the wells were visually inspected for bacterial growth. MIC values reported are based on three technical replicates and defined as the lowest concentration of the compound that prevented visible growth of bacteria.

E. coli ATCC 25922 = assay type: cell-based, Escherichia coli; details: for MIC (µg/mL) against E. coli (ATCC 25922): (Supplement 2); for Antibacterial activity (MIC) E. coli ATCC 25922: microbroth dilution per CLSI, MHB, 18 h at 37 °C, visual inspection, three technical replicates
Method: as §1, §2

K. pneumoniae ATCC 13883 = assay type: cell-based, Klebsiella pneumoniae; details: microbroth dilution per CLSI, MHB, 18 h at 37 °C, visual inspection, three technical replicates
Method: as §1, §2

A. baumannii ATCC 17961 = assay type: cell-based, Acinetobacter baumannii; details: microbroth dilution per CLSI, MHB, 18 h at 37 °C, visual inspection, three technical replicates
Method: as §1, §2

P. aeruginosa PAO1 = assay type: cell-based, Pseudomonas aeruginosa; details: microbroth dilution per CLSI, MHB, 18 h at 37 °C, visual inspection, three technical replicates
Method: as §1, §2

S. aureus USA300 = assay type: cell-based, Staphylococcus aureus; details: microbroth dilution per CLSI, MHB, 18 h at 37 °C, visual inspection, three technical replicates
Method: as §1, §2

Row | Compound | Antibacterial activity (MIC) E. coli (MCR-1) (E. coli (MCR-1)) | MIC (µg/mL) against E. coli (ATCC 25922) (E. coli ATCC 25922) | Antibacterial activity (MIC) E. coli ATCC 25922 (E. coli ATCC 25922) | Antibacterial activity (MIC) K. pneumoniae ATCC 13883 (K. pneumoniae ATCC 13883) | Antibacterial activity (MIC) A. baumannii ATCC 17961 (A. baumannii ATCC 17961) | Antibacterial activity (MIC) P. aeruginosa PAO1 (P. aeruginosa PAO1) | Antibacterial activity (MIC) S. aureus USA300 (S. aureus USA300)
1 | CC[C@H](C)[C@H](NC(=O)[C@@H](NC(=O)[C@H](Cc1c[nH]c2ccccc12)NC(=O)[C@@H](CCCN)NC(=O)[C@H](C)NC(=O)[C@H](CCCN)NC(=O)[C@@H](CCCN)NC(=O)[C@@H](Cc1c[nH]c2ccccc12)NC(=O)[C@@H](Cc1ccc(O)cc1)NC(=O)[C@@H](CO)NC(=O)CCCCCC(C)C)[C@@H](C)O)C(=O)N[C@@H](CC(N)=O)C(=O)NCC(=O)NCC(N)=O [LL(Ala6)-NH2 (34)] ({Octanoyl(7-Me)}-[dS][dY][dW][dOrn][Orn]A[dOrn]WTINGG-NH2) | 8 µg/mL | 4 to 8 µg/mL | 4 to 8 µg/mL | 8 µg/mL | 16 µg/mL | 16 µg/mL | >32 µg/mL
2 | CC[C@H](C)[C@H](NC(=O)[C@@H](NC(=O)[C@H](C)NC(=O)[C@@H](CCCN)NC(=O)CNC(=O)[C@H](CCCN)NC(=O)[C@@H](CCCN)NC(=O)[C@@H](Cc1c[nH]c2ccccc12)NC(=O)[C@@H](Cc1ccc(O)cc1)NC(=O)[C@@H](CO)NC(=O)CCCCCC(C)C)[C@@H](C)O)C(=O)N[C@@H](CC(N)=O)C(=O)NCC(=O)NCC(N)=O [LL(Ala8)-NH2 (36)] ({Octanoyl(7-Me)}-[dS][dY][dW][dOrn][Orn]G[dOrn]ATINGG-NH2) | >32 µg/mL |  | >32 µg/mL | >32 µg/mL | >32 µg/mL | 32 µg/mL | >32 µg/mL
3 | CC[C@H](C)[C@H](NC(=O)[C@H](C)NC(=O)[C@H](Cc1c[nH]c2ccccc12)NC(=O)[C@@H](CCCN)NC(=O)CNC(=O)[C@H](CCCN)NC(=O)[C@@H](CCCN)NC(=O)[C@@H](Cc1c[nH]c2ccccc12)NC(=O)[C@@H](Cc1ccc(O)cc1)NC(=O)[C@@H](CO)NC(=O)CCCCCC(C)C)C(=O)N[C@@H](CC(N)=O)C(=O)NCC(=O)NCC(N)=O [LL(Ala9)-NH2 (37)] ({Octanoyl(7-Me)}-[dS][dY][dW][dOrn][Orn]G[dOrn]WAINGG-NH2) | 4 to 8 µg/mL |  | 4 µg/mL | 4 µg/mL | 8 µg/mL | 4 µg/mL | >32 µg/mL
4 | CC(C)CCCCCC(=O)N[C@H](CO)C(=O)N[C@H](Cc1ccc(O)cc1)C(=O)N[C@H](Cc1c[nH]c2ccccc12)C(=O)N[C@H](CCCN)C(=O)N[C@@H](CCCN)C(=O)NCC(=O)N[C@H](CCCN)C(=O)N[C@@H](Cc1c[nH]c2ccccc12)C(=O)N[C@H](C(=O)N[C@@H](C)C(=O)N[C@@H](CC(N)=O)C(=O)NCC(=O)NCC(N)=O)[C@@H](C)O [LL(Ala10)-NH2 (38)] ({Octanoyl(7-Me)}-[dS][dY][dW][dOrn][Orn]G[dOrn]WTANGG-NH2) | >32 µg/mL |  | >32 µg/mL | >32 µg/mL | >32 µg/mL | 16 µg/mL | >32 µg/mL
5 | CC[C@H](C)[C@H](NC(=O)[C@@H](NC(=O)[C@H](Cc1c[nH]c2ccccc12)NC(=O)[C@@H](CCCN)NC(=O)CNC(=O)[C@H](CCCN)NC(=O)[C@@H](CCCN)NC(=O)[C@@H](Cc1c[nH]c2ccccc12)NC(=O)[C@@H](Cc1ccc(O)cc1)NC(=O)[C@@H](CO)NC(=O)CCCCCC(C)C)[C@@H](C)O)C(=O)N[C@@H](C)C(=O)NCC(=O)NCC(N)=O [LL(Ala11)-NH2 (39)] ({Octanoyl(7-Me)}-[dS][dY][dW][dOrn][Orn]G[dOrn]WTIAGG-NH2) | 8 µg/mL |  | 8 µg/mL | 8 µg/mL | 8 µg/mL | 4 µg/mL | >32 µg/mL
6 | CC[C@H](C)[C@H](NC(=O)[C@@H](NC(=O)[C@H](Cc1c[nH]c2ccccc12)NC(=O)[C@@H](CCCN)NC(=O)CNC(=O)[C@H](CCCN)NC(=O)[C@@H](CCCN)NC(=O)[C@@H](Cc1c[nH]c2ccccc12)NC(=O)[C@@H](Cc1ccc(O)cc1)NC(=O)[C@@H](CO)NC(=O)CCCCCC(C)C)[C@@H](C)O)C(=O)N[C@@H](CC(N)=O)C(=O)N[C@@H](C)C(=O)NCC(N)=O [LL(Ala12)-NH2 (40)] ({Octanoyl(7-Me)}-[dS][dY][dW][dOrn][Orn]G[dOrn]WTINAG-NH2) | 8 µg/mL |  | 8 µg/mL | 8 µg/mL | 8 µg/mL | 8 µg/mL | >32 µg/mL
7 | CC[C@H](C)[C@H](NC(=O)[C@@H](NC(=O)[C@H](Cc1c[nH]c2ccccc12)NC(=O)[C@@H](CCCN)NC(=O)CNC(=O)[C@H](CCCN)NC(=O)[C@@H](CCCN)NC(=O)[C@@H](Cc1c[nH]c2ccccc12)NC(=O)[C@@H](Cc1ccc(O)cc1)NC(=O)[C@@H](CO)NC(=O)CCCCCC(C)C)[C@@H](C)O)C(=O)N[C@@H](CC(N)=O)C(=O)NCC(=O)N[C@@H](C)C(N)=O [LL(Ala13)-NH2 (41)] ({Octanoyl(7-Me)}-[dS][dY][dW][dOrn][Orn]G[dOrn]WTINGA-NH2) | 8 µg/mL | 4 to 8 µg/mL | 4 to 8 µg/mL | 8 µg/mL | 8 µg/mL | 4 µg/mL | >32 µg/mL
8 | CC[C@H](C)[C@H](NC(=O)[C@H](CC(N)=O)NC(=O)[C@H](Cc1c[nH]c2ccccc12)NC(=O)[C@@H](CCCN)NC(=O)CNC(=O)[C@H](CCCN)NC(=O)[C@@H](CCCN)NC(=O)[C@@H](Cc1c[nH]c2ccccc12)NC(=O)[C@@H](Cc1ccc(O)cc1)NC(=O)[C@@H](CO)NC(=O)CCCCCC(C)C)C(=O)N[C@@H](CC(N)=O)C(=O)NCC(=O)NCC(N)=O [LL(Asn9)-NH2 (47)] ({Octanoyl(7-Me)}-[dS][dY][dW][dOrn][Orn]G[dOrn]WNINGG-NH2) | 8 µg/mL | 8 µg/mL (≈ 4.89 µM) | 8 µg/mL | 8 to 16 µg/mL | 16 µg/mL | 8 µg/mL | >32 µg/mL
9 | CC[C@H](C)[C@H](NC(=O)[C@@H](NC(=O)[C@H](Cc1c[nH]c2ccccc12)NC(=O)[C@@H](CCCN)NC(=O)CNC(=O)[C@H](CCCN)NC(=O)[C@@H](CCCN)NC(=O)[C@@H](Cc1c[nH]c2ccccc12)NC(=O)[C@@H](Cc1ccc(O)cc1)NC(=O)[C@@H](C)NC(=O)CCCCCC(C)C)[C@@H](C)O)C(=O)N[C@@H](CC(N)=O)C(=O)NCC(=O)NCC(N)=O [LL(D-Ala1)-NH2 (29)] ({Octanoyl(7-Me)}-[dA][dY][dW][dOrn][Orn]G[dOrn]WTINGG-NH2) | 8 µg/mL |  | 8 µg/mL | >32 µg/mL | 32 µg/mL | 8 µg/mL | >32 µg/mL
